According to US12065445B2, “CDK2 inhibitors and methods of using the same” (Cedilla Therapeutics, Inc., priority 2021, dated 2024):

Tested on: Kuramochi cells
Experiment: BrdU Cell Proliferation Assay
Assay type: cell-based
Settings: read-out: BrdU - KURAMOCHI.1: IC50
Protocol: A BrdU assay was used as a measure of proliferation based on the DNA replication process of proliferating cells. BrdU, a pyrimidine analog, is added to the cell culture and incorporated into the DNA of proliferating cells. The presence of the BrdU analog was then measured through a colorimetric ELISA. After fixation and permeabilization of cells, peroxidase-conjugated antibody recognizing BrdU is added and allowed to incubate, followed by thorough washing to remove unbound antibody. In order to quantify the amount of bound antibody, peroxidase substrate is added and produces a color that can be measured at 450 nm.
On day −1, Kuramochi cells (Sekisui XenoTech JCRB0098) were seeded at 2,000 cells/well in columns 2-12 of a 96 well plate (Corning, CLS3596) in 150 μL media and allowed to adhere overnight at 37 degree with 5% CO2.
On day 0, the source plate was prepared by adding 10 mM compounds and performing 3-fold serial dilutions for a 10-point dose response of each compound. Using a multichannel pipette, 2 μL of the contents of the source plate were stamped into an intermediate plate with 500 μL of RPMI 1640 Media, GlutaMAX Supplement (Life Technologies, 61870127) in each well of a Nunc 96 DeepWell™ plate, non-treated 96 DeepWell plate, 2 mL/well, sterile, natural, 60/cs (Sigma Z717274) and mixed thoroughly. 50 μL from each well of this intermediate plate were added to 4 wells of a 96-well plate with previously seeded Kuramochi cells.
On day 4, the plates were developed using the BrdU ELISA Cell Proliferation Assay according to manufacturer's instructions (Roche, 11647229001). Briefly, BrdU was diluted 1:100 in Gibco®, OptiMEM® and 20 μL/well was added, shaken for 10 minutes at 350 rpm, and then returned to the incubator for 1 hour. Following incubation, the medium was discarded, and the cells were fixed by adding 200 μL of Fix/Denature solution. The anti-BrdU peroxidase antibody was diluted 1:1000 in OptiMEM, added at 100 μL/well, and incubated while shaking (350 rpm) for one hour. Three washes with PBS were performed to remove any unbound antibody, followed by the addition of 100 μL of substrate solution to each well. 25 μL/well of 1M sulfuric acid solution was then added to halt the reaction, and plates were read out using an Envision spectrophotometer (Perkin Elmer) set to read 450 nm absorbance. Background absorbance values from empty wells were subtracted from all samples and then normalized to DMSO treated wells.

## CNC(=O)[C@@H](NC(=O)[C@H]1CN(C(=O)c2cnn(Cc3ccccc3)c2)CC12CN(C(=O)C(C)C)C2)[C@@H](C)OCc1ccccc1 [I-54B]
  IC50: > 10 µM

## CNC(=O)[C@@H](NC(=O)[C@@H]1CN(C(=O)c2cnn(Cc3ccccc3)c2)CC12CN(C(=O)C(C)(C)C#N)C2)[C@@H](C)OCc1ccccc1 [I-76A]
  IC50: > 10 µM

## COCCNC(=O)[C@@H]1CN(C(=O)c2cnn(Cc3ccccc3)c2)CC12CN(C(=O)[C@H]1CC1(C)C)C2 [I-122A]
  IC50: > 10 µM

## C[C@@H](OCC1CCCCC1)[C@H](NC(=O)[C@@H]1CN(C(=O)c2cnn(Cc3ccccc3)c2)CC12CN(C(=O)[C@H]1CC1(C)C)C2)C(=O)N1CC2(CNC2)C1 [I-240]
  IC50: > 10 µM

## CC1(C)C[C@@H]1C(=O)N1CC2(CN(C(=O)c3cnn(Cc4ccccc4)c3)C[C@@H]2C(=O)Nc2ccc(Cc3ccccc3)cc2)C1 [I-84B]
  IC50: 5 to 10 µM

## CNC(=O)[C@@H](NC(=O)[C@H]1CN(C(=O)C2CCNC2)CC12CN(C(=O)[C@H]1CC1(C)C)C2)[C@@H](C)OCc1ccccc1 (stereo partly drawn) [I-70B]
  IC50: > 10 µM

## COC(=O)C1(NC(=O)[C@H]2CN(C(=O)c3cnn(Cc4ccccc4)c3)CC23CN(C(=O)[C@H]2CC2(C)C)C3)COC1 [I-142A]
  IC50: > 10 µM

## CNC(=O)[C@@H](NC(=O)[C@H]1CN(C(=O)c2nccs2)CC12CN(C(=O)[C@H]1CC1(C)C)C2)[C@@H](C)OCC1CCCCC1 [I-146]
  IC50: > 10 µM

## CNC(=O)[C@@H](NC(=O)[C@H]1CN(Cc2cccnc2)CC12CN(C(=O)[C@H]1CC1(C)C)C2)[C@@H](C)OCc1ccccc1 [I-49B]
  IC50: > 10 µM

## CNC(=O)[C@@H](NC(=O)[C@@H]1CN(C(=O)c2ccccn2)CC12CN(C(=O)[C@H]1CC1(C)C)C2)[C@@H](C)OCc1ccccc1 [I-45A]
  IC50: > 10 µM

## CNC(=O)[C@@H](NC(=O)[C@@H]1CN(C(=O)c2cncs2)CC12CN(C(=O)[C@H]1CC1(C)C)C2)[C@@H](C)OCc1ccccc1 [I-24A, (S)—N-((2S,3R)-3-(benzyloxy)-1-(methylamino)-1-oxobutan-2-yl)-2-((S)-2,2-dimethylcyclopropane-1-carbonyl)-6-(thiazole-5-carbonyl)-2,6-diazaspiro[3.4]octane-8-carboxamide]
  IC50: > 10 µM

## CNC(=O)[C@@H](NC(=O)[C@H]1CN(C(=O)c2cnn(Cc3ccccc3)c2)CC12CN(C(=O)C1(CCOC)CC1)C2)[C@@H](C)OCc1ccccc1 [I-102B]
  IC50: > 10 µM

## CNC(=O)[C@@H](NC(=O)[C@@H]1CN(C(=O)c2cnn(CC3CCN(C(C)=O)CC3)c2)CC12CN(C(=O)[C@H]1CC1(C)C)C2)[C@@H](C)OCc1ccccc1 [I-17A]
  IC50: > 10 µM

## C[C@@H](OCC1CCCCC1)[C@H](NC(=O)[C@H]1CN(C(=O)c2cnn(Cc3ccccc3)c2)CC12CN(C(=O)[C@H]1CC1(C)C)C2)C(=O)N1CCC(F)(F)CC1 [I-149B]
  IC50: > 10 µM

## CC1(C)C[C@@H]1C(=O)N1CC2(CN(C(=O)c3cnn(Cc4ccccc4)c3)C[C@H]2C(=O)N2CC[C@@H](OCC3CCCCC3)C2)C1 [I-235]
  IC50: > 10 µM

## CNC(=O)[C@@H](NC(=O)[C@@H]1CN(C(=O)c2cnn(Cc3ccccc3)c2)CC12CN(C(=O)C(C)(C)C)C2)[C@@H](C)OCc1ccccc1 [I-65A]
  IC50: > 10 µM

## CNC(=O)[C@@H](NC(=O)[C@H]1CN(C(=O)C2CCOCC2)CC12CN(C(=O)[C@H]1CC1(C)C)C2)[C@@H](C)OCc1ccccc1 [I-38B]
  IC50: > 10 µM

## CC1(C)C[C@@H]1C(=O)N1CC2(CN(C(=O)c3cnn(Cc4ccccc4)c3)C[C@@H]2C(=O)N[C@H]2CCc3cc(Cl)ccc32)C1 [I-120B]
  IC50: > 10 µM

## CNC(=O)[C@@H](NC(=O)[C@@H]1CN(S(=O)(=O)c2cnn(Cc3ccccc3)c2)CC12CN(C(=O)[C@H]1CC1(C)C)C2)[C@@H](C)OCc1ccccc1 [I-79A]
  IC50: > 10 µM

## CNC(=O)[C@@H](NC(=O)[C@@H]1CN(C(=O)c2cnc(COC)s2)CC12CN(C(=O)[C@H]1CC1(C)C)C2)[C@@H](C)OCC1CCCCC1 [I-145A]
  IC50: 0.5 to 5 µM

## CNC(=O)[C@H](CSCc1ccccc1)NC(=O)[C@@H]1CN(C(=O)c2cnn(Cc3ccccc3)c2)CC12CN(C(=O)[C@H]1CC1(C)C)C2 [I-225]
  IC50: > 10 µM
